Here are results for 10 molecules from ChEMBL document CHEMBL4431301, “The Medicinal Chemistry of Dengue Virus” (J Med Chem, 2016).

Data set [1] concerns dengue virus type 2. Put plainly: Antiviral activity against Dengue virus 2 NGC infected in african green monkey Vero cells assessed as reduction in viral titer at 6 uM after 44 hrs relative to control. In kind it is functional.
Data set [2] relates to dengue virus type 2. Briefly: Antiviral activity against Dengue virus 2 NGC infected in african green monkey Vero cells assessed as reduction in viral titer at 17 uM after 44 hrs relative to control. In kind it is functional.
For data set [3], the system named is dengue virus type 3. Briefly: Antiviral activity against Dengue virus 3 by CFI assay. Type of data set: functional, organism-based.
In data set [4] the test system is dengue virus type 1. Briefly: Antiviral activity against Dengue virus 1 by CFI assay. In kind it is functional, organism-based.
The nature of data set [5]: Inhibition of GST-fused Imp-alpha/beta1 (unknown origin) binding to Dengue virus NS5 after 2 hrs by alpha screen assay. Also noted: species or system Homo sapiens. For orientation: In Alpha technology, singlet oxygen from a donor bead excites a nearby acceptor bead.
Data set [6] deals with dengue virus type 2. Briefly: Antiviral activity against Dengue virus 2 NGC infected in african green monkey Vero cells assessed as reduction in viral titer preincubated for 2 hrs measured after 4 days by qRT-PCR. In kind it is functional, organism-based. A general note: Real-time PCR tracks product formation cycle by cycle.
Data set [7] concerns dengue virus type 2. Put plainly: Antiviral activity against Dengue virus 2 by CFI assay. In kind it is functional, organism-based.
In data set [8] the test system is West Nile virus. Briefly: Antiviral activity against West Nile virus NY99 infected in african green monkey Vero cells assessed as reduction in viral titer preincubated for 2 hrs measured after 4 days by qRT-PCR. In kind it is functional, organism-based.
Data set [9] deals with dengue virus type 4. Briefly: Antiviral activity against Dengue virus 4 by CFI assay. Type of data set: functional, organism-based.
In data set [10] the test system is dengue virus type 2. Put plainly: Antiviral activity against Dengue virus 2 PL046 infected in […] Hepa1-6 cells by immunofluorescence analysis. In kind it is functional, organism-based. The note with it: PL046, Hepa1-6.
Data set [11] relates to dengue virus type 2. Briefly: Antiviral activity against Dengue virus 2 PL046 infected in human A549 cells by immunofluorescence analysis. Type of data set: functional, organism-based.
For data set [12], the system named is dengue virus type 2. Briefly: Antiviral activity against Dengue virus 2 PL046 infected in mouse J774A.1 cells by immunofluorescence analysis. In kind it is functional, organism-based. The note with it: PL046, J774.A1.
Data set [13] has as its system dengue virus type 2. Briefly: Antiviral activity against Dengue virus 2 PL046 infected in human WS1 cells by immunofluorescence analysis. Type of data set: functional, organism-based.
Data set [14] concerns dengue virus type 1. Put plainly: Antiviral activity against Dengue virus 1 2402 infected in BHK21 cells after 48 hrs by CFI assay. In kind it is functional, organism-based. The note with it: Dengue virus, 2402, BHK-21, 48 h.
Data set [15] deals with dengue virus type 4. Put plainly: Antiviral activity against Dengue virus 4 2270 infected in BHK21 cells after 48 hrs by CFI assay. In kind it is functional, organism-based. The note with it: Dengue virus, 2270, BHK-21, 48 h.
The test system of data set [16] is dengue virus type 2. Briefly: Antiviral activity against Dengue virus 2 3295 infected in BHK21 cells after 48 hrs by CFI assay. In kind it is functional, organism-based. The note with it: Dengue virus, 3295, BHK-21, 48 h.
The test system of data set [17] is dengue virus type 3. Briefly: Antiviral activity against Dengue virus 3 863 infected in BHK21 cells after 48 hrs by CFI assay. The note with it: Dengue virus, 863, BHK-21, 48 h. In kind it is functional, organism-based.
The nature of data set [18]: Inhibition of N-terminal GST tagged recombinant Dengue virus 3 N-7 methyltransferase expressed in Escherichia coli BL21 cells by scintillation counting analysis. Also noted: species or system dengue virus type 3.
The target in the next data set is Nonstructural protein 5 (Dengue virus, UniProt V5TFZ2). Briefly: Inhibition of N-terminal GST tagged recombinant Dengue virus 3 2'-O methyltransferase expressed in Escherichia coli BL21 cells by scintillation counting analysis. Also noted: species or system dengue virus type 3.
Sequence of Nonstructural protein 5 (V5TFZ2 whole entry): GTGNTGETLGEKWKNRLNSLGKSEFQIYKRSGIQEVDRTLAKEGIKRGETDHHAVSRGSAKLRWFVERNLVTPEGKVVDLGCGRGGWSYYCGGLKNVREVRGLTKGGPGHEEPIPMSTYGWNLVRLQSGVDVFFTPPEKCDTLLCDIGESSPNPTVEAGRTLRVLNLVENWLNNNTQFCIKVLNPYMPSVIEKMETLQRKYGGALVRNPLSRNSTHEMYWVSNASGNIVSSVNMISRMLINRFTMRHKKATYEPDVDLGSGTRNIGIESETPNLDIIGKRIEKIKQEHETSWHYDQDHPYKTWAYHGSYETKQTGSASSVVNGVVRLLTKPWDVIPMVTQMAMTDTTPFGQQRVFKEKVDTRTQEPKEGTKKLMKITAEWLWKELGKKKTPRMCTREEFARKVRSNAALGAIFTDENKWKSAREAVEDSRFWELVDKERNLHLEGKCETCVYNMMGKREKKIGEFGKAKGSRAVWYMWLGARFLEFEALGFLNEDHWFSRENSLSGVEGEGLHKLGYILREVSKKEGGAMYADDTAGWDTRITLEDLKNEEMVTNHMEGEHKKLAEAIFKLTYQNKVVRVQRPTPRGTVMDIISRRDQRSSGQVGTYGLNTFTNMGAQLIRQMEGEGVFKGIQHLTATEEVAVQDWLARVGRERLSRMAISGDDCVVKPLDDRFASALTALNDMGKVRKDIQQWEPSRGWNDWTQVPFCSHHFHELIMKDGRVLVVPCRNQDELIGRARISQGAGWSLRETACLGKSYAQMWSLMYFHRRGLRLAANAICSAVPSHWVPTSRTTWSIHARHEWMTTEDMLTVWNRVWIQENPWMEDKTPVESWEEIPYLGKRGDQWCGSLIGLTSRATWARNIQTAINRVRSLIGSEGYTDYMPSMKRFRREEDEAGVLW
The subject of data set [19] is dengue virus type 4. Put plainly: Antiviral activity against Dengue virus 4 infected in human Huh7 cells assessed as reduction in viral replication after 48 hrs by plaque assay. In kind it is functional, organism-based. The note with it: Huh-7, 48 h.
For data set [20], the system named is dengue virus type 3. Briefly: Antiviral activity against Dengue virus 3 infected in human Huh7 cells assessed as reduction in viral replication after 48 hrs by plaque assay. In kind it is functional, organism-based. The note with it: Huh-7, 48 h.
Data set [21] has as its system dengue virus type 2. Briefly: Antiviral activity against Dengue virus 2 infected in human Huh7 cells assessed as reduction in viral replication after 48 hrs by plaque assay. The note with it: Huh-7, 48 h. In kind it is functional, organism-based.
Data set [22] deals with dengue virus type 1. Briefly: Antiviral activity against Dengue virus 1 infected in human Huh7 cells assessed as reduction in viral replication after 48 hrs by plaque assay. Type of data set: functional, organism-based. The note with it: Huh-7, 48 h.
Data set [23] can be described thus: Inhibition of yeast alpha-glucosidase by double reciprocal plot method. More on the design: species or system Saccharomyces cerevisiae.
Data set [24] relates to dengue virus type 2. Briefly: Antiviral activity against Dengue virus 2 NGC infected in african green monkey Vero cells assessed as reduction in viral titer after 42 hrs by plaque assay. Type of data set: functional.
Data set [25] concerns West Nile virus. Briefly: Antiviral activity against West Nile virus infected in african green monkey Vero cells assessed as reduction in viral titer after 42 hrs by plaque assay. In kind it is functional.
Data set [26] can be described thus: Oral bioavailability in Balb/c mouse at 200 mg/kg after 5 mins to 48 hrs by LC-MS/MS analysis. Type of data set: ADME, organism-based. The note with it: in vivo.
The subject of data set [27] is dengue virus type 2. Put plainly: Antiviral activity against Dengue virus 2 NGC infected in african green monkey Vero cells assessed as reduction in viral titer preincubated for 1 hr followed by viral infection measured after 5 days by plaque assay. Type of data set: functional, organism-based.
A short description of data set [28]: Cytotoxicity against african green monkey Vero cells. Type of data set: cell-based. The note with it: chlorocebus sabaeus.
The test system of data set [29] is dengue virus type 1. Briefly: Antiviral activity against Dengue virus 1 West Pacific infected in human A549 cells assessed as reduction in viral titer after 48 hrs by plaque assay. In kind it is functional, organism-based. The note with it: A549, 48 h.
The subject of data set [30] is dengue virus type 2. Put plainly: Antiviral activity against Dengue virus 2 NGC infected in human A549 cells assessed as reduction in viral titer after 48 hrs by plaque assay. Type of data set: functional, organism-based. The note with it: A549, 48 h.
The subject of data set [31] is dengue virus type 4. Put plainly: Antiviral activity against Dengue virus 4 22713 infected in BHK21 cells assessed as reduction in viral titer after 48 hrs by plaque assay. Type of data set: functional, organism-based. The note with it: Dengue virus, 22713, BHK-21, 48 h.
Data set [32] concerns dengue virus type 3. Briefly: Antiviral activity against Dengue virus 3 34640 infected in human A549 cells assessed as reduction in viral titer after 48 hrs by plaque assay. Type of data set: functional, organism-based. The note with it: Dengue virus, 34640, A549, 48 h.
Data set [33] concerns dengue virus type 2. Put plainly: Antiviral activity against Dengue virus 2 NGC infected in HeLa cells assessed as reduction in viral RNA replication after 48 hrs by luciferase assay. Type of data set: functional, organism-based.

Consider `O=C(Nc1cccc(Cn2cc(-c3cccc(S(=O)(=O)Nc4ccccc4C(=O)O)c3)cn2)c1)c1ccc(C(=O)c2ccccc2)cc1`, for which the “fold change (FC)” value is recorded as 3.4 with dengue virus type 2 [1] and 4.5 in the data set with dengue virus type 2 [2].

Consider IVERMECTIN, for which the EC50 (in general, the concentration that produces a half-maximal response) with dengue virus type 3 [3] is 1.2 to 1.6 µM; in the data set with dengue virus type 1 [4], 1.2 to 1.6 µM; in the data set on dengue virus type 2 [6], 0.7 µM; in the data set on dengue virus type 2 [7], 1.2 to 1.6 µM; with West Nile virus [8], 4 µM; in the data set on dengue virus type 4 [9], 1.2 to 1.6 µM. In addition, the IC50 (commonly the point on the concentration scale where inhibition reaches its midpoint) in data set [5] stood at 17 µM.

For `CCN(CCO)CCCC(C)Nc1ccnc2cc(Cl)ccc12` (centres undefined) [HYDROXYCHLOROQUINE], the IC50 in the data set on dengue virus type 2 [10], in the data set on dengue virus type 2 [11], in the data set with dengue virus type 2 [12] and with dengue virus type 2 [13] was 9.7 to 12.9 µM in each case.

Turning to `CCCC(=O)O[C@H]1CN2CC[C@H](O)[C@@H]2[C@@H](O)[C@@H]1O` [CELGOSIVIR], the EC50 was 0.22 to 0.68 µM in the data set on dengue virus type 1 [14], 0.22 to 0.68 µM with dengue virus type 4 [15], 0.2 µM with dengue virus type 2 [16] and 0.22 to 0.68 µM with dengue virus type 3 [17].

As for `N[C@@H](CCSC[C@H]1O[C@@H](n2cnc3c(NCc4cccc(Cl)c4)ncnc32)[C@H](O)[C@@H]1O)C(=O)O`, the Ki – broadly, the equilibrium dissociation constant of an inhibitor or competing ligand from its target – in data set [18] was determined as 0.82 µM; on Nonstructural protein 5, 0.17 µM.

For `CC(=O)O[C@H]1C[C@H](O[C@H]2[C@@H](O)C[C@H](O[C@H]3[C@@H](O)C[C@H](O[C@H]4CC[C@@]5(C)[C@H](CC[C@@H]6[C@@H]5C[C@@H](O)[C@]5(C)[C@@H](C7=CC(=O)OC7)CC[C@]65O)C4)O[C@@H]3C)O[C@@H]2C)O[C@H](C)[C@H]1O[C@@H]1O[C@H](CO)[C@@H](O)[C@H](O)[C@H]1O` [LANATOSIDE C], the IC50 in the data set with dengue virus type 4 [19], in the data set with dengue virus type 3 [20], in the data set with dengue virus type 2 [21] and in the data set on dengue virus type 1 [22] was 0.5 to 1 µM each time.

In data set [23], `O=C(NC[C@H]1N[C@H](CO)[C@@H](O)[C@@H]1O)C1Cc2ccccc21` (some centres undefined) returned a Ki of 0.053 µM.

As for `COC(=O)c1c(-c2c(Cl)cccc2Cl)noc1-c1cnn(-c2cccc(Cl)c2)c1C(F)(F)F`, the EC90 (as a rule, the concentration needed for an effect of 90%) in the data set on dengue virus type 2 [24] was 0.0052 µM; in the data set on West Nile virus [25], 0.00031 µM.

`COCCCCCCCCCN1C[C@H](O)[C@@H](O)[C@H](O)[C@H]1CO`: the bioavailability (commonly dose-corrected exposure relative to a reference, in per cent) in data set [26] worked out at 84%. Besides, in the data set on dengue virus type 2 [27], the EC50 stood at 17 µM. The CC50 (commonly the concentration at which the toxic effect on the cells reaches its halfway point) in data set [28] is > 500 µM.

With `O=C1C[C@]2(C(=O)Nc3ccc(Cl)cc32)c2cnn(Cc3ccc(Cl)cc3)c2N1`, the half-maximal effective concentration (EC50) in the data set on dengue virus type 1 [29] is > 20 µM; with dengue virus type 2 [30] it was 0.01 to 0.08 µM; in the data set on dengue virus type 4 [31], > 20 µM; in the data set on dengue virus type 3 [32], 0.01 to 0.08 µM; with dengue virus type 2 [33], 1.9 µM.
